The source of these data is patent US9408820B2, “Broncholytic drug on the basis of prostaglandin” (OBSCHESTVO S OGRANICHENNOY OTVETSTVENNOST'YU “PROSTANIT …, priority 2012, dated 2016).

Data set [1] deals with guinea pig trachea. Conditions: isolated guinea pig trachea; read-out: EC50, relaxation of the guinea pig trachea; cited from earlier work.
Data set [2] deals with white outbred male mice. As to the kind of experiment: toxicity in repeated introduction in mice. Conditions: 50 and 500 μg/kg daily for 14 days. In kind it is in vivo. As for the experimental part:
Experiments conducted on white outbred male mice (22±2 g weight). Animals were divided into three groups of 10 animals each. Nitroproston (1% of alcoholic solution) was diluted with water and was injected in the volume 20 μl in two doses: 50 and 500 μg/kg. The control group was injected with equal volume of distilled water. The injections worked every day for 14 days. The animals were observed daily, measuring their weight, the intake of food and water. There have been observed no differences in the state and behavior of the animals between the control and experimental groups.

The subject of data set [3] is healthy volunteers. Kind of data set: inhalation in healthy volunteers, external respiratory function. It counts as in vivo, human. As for the experimental part: (§1) The present invention solves the task of creating of bronchial dilating drug on the basis of 1′,3′-dinitroglycerol ester of 11(S),15(S)-dihydroxy-9-keto-5Z,13E-prostadienoic acid (nitroproston). This drug is any form of nitroproston suitable for introduction into the respiratory tract by inhalation, for example in the form of isotonic solution. […] Therapeutic index measured in rodents is greater than 15000.
(§2) The tests were carried out on healthy volunteers (average age 42.6±3.9 years) and patients with bronchial asthma in unstable remission state (average age 48.3±5.1 years). Nitroproston was introduced via inhalation in the form of a solution in the physiological solution in doses of 5 and 7.5 μg per inhalation. To a person skilled in the art will not meet a difficulty to prepare the solution for inhalation, knowing the dose of the active substance and the volume of the solution, which will be determined by technical features used in the specific context of the inhaler. […] External respiratory function was determined with the help of automatic spiroanalyzer (VI 8911, Estonia). […] So, change the maximum 25% volume exhalation velocity ranged from 10.4 to 32.2% as compared to the original values. Changes in peak volumetric velocity of exhalation in patients who have received 7.5 micrograms nitroproston per inhalation, are presented at the FIG. 1.

Data set [4] concerns white outbred male mice. Kind of data set: acute toxicity and therapeutic index in mice. In kind it is in vivo. The settings on record: alcohol solution. The procedure: Experiments conducted on white outbred male mice (22±2 g weight). Nitroproston in the form of alcohol solution was injected intraperitoneal to the 10 mice in a maximum of 50 μl per dose of 215 mg/kg. The control group (10 animals) was injected with the same volume of pure ethyl alcohol. Animal health monitoring period was 14 days. Therapeutic index defined as the ratio of LD50 values (toxic dose) to the ED20 for change in blood pressure (pharmacological dose).

Data set [5] concerns patients with bronchial asthma in unstable remission state. Kind of data set: broncholytic activity by inhalation in patients with bronchial asthma. It counts as in vivo, human.
From the text: as §1
On the x-axis is the time after the introduction of the nitroproston, min; on the y-axis is the peak exhale velocity (l/min). The names of patients are abbreviated.
as §2

In data set [6] the test system is individuals. Conditions: in vivo; cited from earlier work.

A word on the EC50: it is the concentration giving half of the maximal effect. For the compound `CCCCC[C@H](O)/C=C/[C@H]1[C@@H](O)CC(=O)[C@@H]1C/C=C\CCCC(=O)OC(CO[N+](=O)[O-])CO[N+](=O)[O-]` [nitroproston, 1′,3′-dinitroglycerol ester of 11(S),15(S)-dihydroxy-9-keto-5Z,13E-prostadienoic acid], in data set [1], the EC50 was 7 nM. For the same compound, the “toxic effects on repeated introduction” value in data set [2] is “no toxic effects”. In addition, in data set [3], the “changes in the functions of the external respiration” value was “did not cause significant changes” and the cough bouts result is “no cough bouts”. Moreover, in data set [4] (215 mg/kg intraperitoneal, 14 days observation), the animal deaths result is given as “animal deaths have not observed”. Moreover, the acute toxicity assessment entry in data set [4] (intraperitoneal, mice) is “low-toxic compound”. Moreover, in data set [5] (5 μg per inhalation), the “parameters of external breath” value is recorded as “improved slightly” and the side effects entry is listed as “have not noticed any side effects”. For the same compound, the external respiration indices entry in data set [5] (7.5 μg per inhalation) was “have been improved”. Besides, the “toxicity at therapeutic doses” value in data set [5] (5-20 μg per inhalation) is reported as “non-toxic”. For the same compound, in data set [5] (7.5 micrograms per inhalation, within 360 minutes (FIG. 1)), the “peak volumetric velocity of exhalation” value is “strongest increase”. Besides, the “only side effect of the inhalation solution” value in data set [5] (inhalation solution) is on record as “transient dry mouth”. Also, the “bronchial dilation and side effects” value in data set [5] (isotonic solution, 7.5 micrograms per inhalation) is given as “prolonged dilation of bronchus without side effects”. In data set [5] (patients with asthma, inhalation), the cough bouts entry was “no cough bouts”.

As for `CCCCC[C@H](O)/C=C/[C@H]1[C@H](O)CC(=O)[C@@H]1C/C=C\CCCC(=O)O` [natural prostaglandin E2, prostaglandin E2, reference compound], in data set [6], the “side effect in individuals” value is recorded as “strong cough reflex”. The EC50 in data set [1] is 140 ± 80 nM.

For the compound `CC(Cc1ccc(O)cc1)NCC(O)c1cc(O)cc(O)c1` (stereo not drawn) [Berotec, reference compound], the “changes in the functions of the external respiration” value in data set [3] is given as “did not cause significant changes”. For the same compound, the bronchospasm test result in data set [5] (patients with bronchial asthma) is reported as “positive result”.
